This note sets out measurements from PubChem BioAssay AID624129 (Sanford-Burnham Center for Chemical Genomics, 2012).

The experiment concerns the target C-X-C chemokine receptor type 6 (Homo sapiens) (UniProt O00574). The experiment can be described thus: CXCR6 receptor antagonists, dose response, cell-based, beta-arrestin, DiscoveRx, APJ panel, uHTS hits (AID 624129). The following applies: CXCR6 beta-arrestin (DiscoveRx) antagonist cell assay; for outcome: CXCR6, dose range 1; for inhibition: CXCR6, run 2, dose range 1, at 79 µM (top of the series).

Where [1] appears, read: CXCR6, dose range 1, mean IC50 across replicates.

The source made the active and inactive calls. How the calls were made is not given here.

Chain of C-X-C chemokine receptor type 6 (Homo sapiens) (O00574 whole entry, looked up): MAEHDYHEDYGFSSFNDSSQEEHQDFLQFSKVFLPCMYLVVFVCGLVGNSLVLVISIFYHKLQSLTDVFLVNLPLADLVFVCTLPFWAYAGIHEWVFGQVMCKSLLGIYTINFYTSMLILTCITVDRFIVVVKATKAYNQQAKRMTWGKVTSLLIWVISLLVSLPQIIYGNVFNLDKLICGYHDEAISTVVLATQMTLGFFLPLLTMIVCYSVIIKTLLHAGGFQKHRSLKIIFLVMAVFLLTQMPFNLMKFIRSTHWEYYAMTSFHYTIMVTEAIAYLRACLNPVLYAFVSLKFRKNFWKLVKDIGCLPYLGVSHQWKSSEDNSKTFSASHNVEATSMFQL

Consider `COC(=O)C1=C(C(=O)OC)SC2(S1)C(C(=O)OC)=C(C(=O)OC)Sc1c2ssc1=O`, for which the outcome was inactive and the inhibition came out at 112%. Besides, the IC50 under setting [1] came out at 23.2 µM. This compound also showed an IC50 (CXCR6, run 1, dose range 2) of 20.3 µM. This compound also showed an IC50 (CXCR6, run 2, dose range 2) of 26 µM.

`O=C1c2cccc3c([N+](=O)[O-])ccc(c23)C(=O)N1c1ccccn1`: the result was inactive and the inhibition came out at 101%. The same compound yielded an IC50 under setting [1] of 24.3 µM. For the same compound, the IC50 (CXCR6, run 1, dose range 2) was 24.3 µM. The same compound showed an IC50 (CXCR6, run 2, dose range 2) of 24.2 µM.

Regarding `COC(=O)c1ccccc1-c1c2ccc(=N)cc-2oc2cc(N)ccc12`, the outcome was inactive and the inhibition came to 88.3%. In addition, under setting [1], the 50% inhibitory concentration (IC50) stood at 17.8 µM. In addition, for the setting “CXCR6, run 1, dose range 2”, the half-inhibitory concentration (IC50) worked out at 17.1 µM. Where the note is “CXCR6, run 2, dose range 2”, the half-inhibitory concentration (IC50) was determined as 18.6 µM.

As for `CC1(C)Cc2ccccc2C(NNC(=O)c2ccccn2)=N1`, the result was inactive and the inhibition worked out at 108%. In addition, the concentration for half-maximal inhibition (IC50) under setting [1] was determined as 19.1 µM. This compound had an IC50 (CXCR6, run 1, dose range 2) of 18 µM. Where the note is “CXCR6, run 2, dose range 2”, this compound showed an IC50 of 20.2 µM.

For the compound `Cc1ccc(NC(=O)c2ccc(Nc3c([N+](=O)[O-])cc([N+](=O)[O-])cc3[N+](=O)[O-])cc2)cc1`, the outcome was inactive and the inhibition came out at 89.3%. Besides, the half-maximal inhibitory concentration (IC50) under setting [1] turned out to be 28.5 µM. Where the note is “CXCR6, run 1, dose range 2”, this compound showed an IC50 of 31.4 µM. This compound yielded a half-inhibitory concentration (IC50) (CXCR6, run 2, dose range 2) of 25.7 µM.

On to `N#Cc1c([N+](=O)[O-])cc([N+](=O)[O-])cc1S(=O)(=O)Cc1ccccc1`, for which the outcome was inactive and the inhibition turned out to be 114%. Under setting [1], this compound came in with a half-inhibitory concentration (IC50) of 11.8 µM. In addition, the IC50 (CXCR6, run 1, dose range 2) turned out to be 11.1 µM. The 50% inhibitory concentration (IC50) (CXCR6, run 2, dose range 2) was 12.6 µM.

In the case of `CC(Oc1cccc(Br)c1)C(=O)NNC(=O)c1ccccn1` (stereo not given), the outcome was inactive and the inhibition is 105%. The IC50 under setting [1] came out at 14.4 µM. Where the note is “CXCR6, run 1, dose range 2”, this compound showed a half-maximal inhibitory concentration (IC50) of 12 µM. Where the note is “CXCR6, run 2, dose range 2”, this compound returned an IC50 of 16.9 µM.

For `C=CCSC1=N/C(=C\c2cc(OCC)c(OC(C)=O)c([N+](=O)[O-])c2)C(=O)S1`, the result was inactive and the inhibition was 96.9%. For the same compound, the IC50 under setting [1] came out at 47.2 µM. For the setting “CXCR6, run 1, dose range 2”, the IC50 was 61 µM. Besides, the IC50 (CXCR6, run 2, dose range 2) stood at 33.4 µM.

With `Cc1ccc(NC(=S)NNc2ccc(C(=O)O)cc2[N+](=O)[O-])cc1C`, the outcome was inactive and the inhibition was 62%. This compound also came in with an IC50 under setting [1] of 48.9 µM. This compound also gave an IC50 (CXCR6, run 1, dose range 2) of 48.9 µM. For the same compound, the IC50 (CXCR6, run 2, dose range 2) is > 79 µM.

On to `C/C(=N\NC(=S)NCCc1ccccc1)c1ccc(Cl)cc1Cl`, for which the result was inactive and the inhibition was found to be 39.5%. Also, the 50% inhibitory concentration (IC50) under setting [1] worked out at 11.8 µM. For the same compound, the IC50 (CXCR6, run 1, dose range 2) was 12.4 µM. In addition, the 50% inhibitory concentration (IC50) (CXCR6, run 2, dose range 2) was found to be 11.1 µM.

For `O=C1c2cccc3c([N+](=O)[O-])ccc(c23)C(=O)N1Cc1cccnc1`, the result was inactive and the inhibition is 110%. Under setting [1], this compound displayed an IC50 of 27.8 µM. The compound further gave an IC50 (CXCR6, run 1, dose range 2) of 25 µM. Besides, the IC50 (CXCR6, run 2, dose range 2) turned out to be 30.5 µM.

Consider `N#CC(C#N)=C1C=CC=CN1/C(=C\c1ccco1)C(=O)c1ccc(-c2ccccc2)cc1`, for which the result was inactive and the inhibition is 103%. Under setting [1], the IC50 is 14.1 µM. Moreover, under “CXCR6, run 1, dose range 2”, the half-inhibitory concentration (IC50) was 12.2 µM. In addition, the IC50 (CXCR6, run 2, dose range 2) was determined as 16 µM.

Regarding `Cc1ccccc1NC(=S)NNc1ncc(C(F)(F)F)cc1Cl`, the outcome was inactive and the inhibition came out at 83.5%. This compound also yielded an IC50 under setting [1] of 15 µM. The compound further displayed a 50% inhibitory concentration (IC50) (CXCR6, run 1, dose range 2) of 16.4 µM. This compound gave an IC50 (CXCR6, run 2, dose range 2) of 13.7 µM.

On to `CC(=O)OC1CCC2(C)C(CCC3C4CC=C(C(C)=O)C4(C)OC(=O)CC32)C1` (stereo not given), for which the result was inactive and the inhibition came to 96.2%. Further, under setting [1], the IC50 worked out at 24.2 µM. The same compound displayed an IC50 (CXCR6, run 1, dose range 2) of 22.6 µM. The concentration for half-maximal inhibition (IC50) (CXCR6, run 2, dose range 2) came out at 25.7 µM.

Turning to `COC(=O)/C=C\C(=O)Nc1cccc([N+](=O)[O-])c1`, the result was inactive and the inhibition was 111%. In addition, the IC50 under setting [1] was found to be 16.6 µM. This compound also yielded an IC50 (CXCR6, run 1, dose range 2) of 18 µM. The same compound came in with an IC50 (CXCR6, run 2, dose range 2) of 15.2 µM.

As for `COc1cc(/C=C/C(=O)c2ccc(C)c([N+](=O)[O-])c2)cc(OC)c1O`, the result was inactive and the inhibition turned out to be 75.1%. The same compound had an IC50 under setting [1] of 19.4 µM. The compound further yielded an IC50 (CXCR6, run 1, dose range 2) of 16.4 µM. Also, the concentration for half-maximal inhibition (IC50) (CXCR6, run 2, dose range 2) came to 22.5 µM.

As for `Cc1cc(C)nc(S/C=C/C(=O)c2ccccc2)n1`, the outcome was inactive and the inhibition was found to be 107%. The compound also came in with an IC50 under setting [1] of 25.1 µM. Further, the IC50 (CXCR6, run 1, dose range 2) was 22.6 µM. For the same compound, where the note is “CXCR6, run 2, dose range 2”, the IC50 is 27.5 µM.
